Source: ChEMBL document CHEMBL5625183, “Discovery of a novel dual-target inhibitor of CDK12 and PARP1 that induces synthetic lethality for treatment of triple-negative breast cancer” (Eur J Med Chem, 2023)
Active and inactive are the calls of the source. The calls are words filed in the database; no cut-off is given here.

Columns and labels:
[1] = MRT (0 to infinity) in Sprague-Dawley rat at 10 mg/kg, po measured upto 24 hrs by LC-MS/MS analysis; format: ADME, organism-based; details: in vivo
[2] = Toxicity in BALB/c mouse xenografted with human MDA-MB-231 cells assessed as morphological changes in lung at 20 to 80 mg/kg, ip administered once daily for 16 days by H and E staining based analysis; format: organism-based; details: in vivo, 384 h, dose 20-80 mg/kg, time 16 day
[3] = Half life in Sprague-Dawley rat 1 mg/kg, iv measured upto 24 hrs by LC-MS/MS analysis; format: ADME, organism-based; details: in vivo
[4] = system: MDA-MB-436; assay: Upregulation of gamma-H2AX expression in human MDA-MB-436 cells incubated for 24 hrs by Western blot analysis; format: functional, cell-based; details: dose <= 20.0 µM
[5] = Metabolic stability in human liver microsome assessed as half life in presence of NADPH incubated upto 60 mins by LC-MS/MS analysis; format: ADME; details: liver microsomes
[6] = system: MDA-MB-231; assay: Antitumor activity against human MDA-MB-231 cells xenografted in ip dosed BALB/c mouse assessed as upregulation of E-cadherin level administered once daily for 16 days; format: functional, organism-based; details: dose 20-80 mg/kg, time 16.0 day
[7] = system: Mus musculus; assay: In-vivo induction of DNA damage in ip dosed BALB/c mouse assessed as downregulation of RAD51 level in tumor administered once daily for 16 days by Western blot analysis; format: functional, organism-based; details: dose 20-80 mg/kg, time 16.0 day
[8] = Cmax in Sprague-Dawley rat at 10 mg/kg, po measured upto 24 hrs by LC-MS/MS analysis; format: ADME, organism-based; details: in vivo
[9] = system: MDA-MB-231; assay: Induction of cell cycle arrest in human MDA-MB-231 cells assessed as accumulation of cells at G2 phase at 5 uM measured after 24 hrs by PI staining based cytometry analysis (reference value: 8.44 %); format: functional
[10] = system: MDA-MB-231; assay: Inhibition of cell migration in human MDA-MB-231 cells assessed as wound closure at 10 uM incubated for 24 hrs by wound healing assay; format: functional, cell-based
[11] = system: MDA-MB-436; assay: Induction of cell cycle arrest in human MDA-MB-436 cells assessed as accumulation of cells at S phase at 5 uM measured after 24 hrs by PI staining based cytometry analysis (reference value: 25.43%); format: functional
[12] = target: Poly [ADP-ribose] polymerase 2 (Homo sapiens, UniProt Q9UGN5); assay: Inhibition of PARP2 (unknown origin) incubated for 1 hr by ELISA analysis
[13] = target: AP2-associated protein kinase 1 (Homo sapiens) (UniProt Q2M2I8); assay: Inhibition of AAK1 (unknown origin) at 1 uM relative to control
[14] = system: MDA-MB-231; assay: Antiproliferative activity against human MDA-MB-231 cells assessed as decrease in number of colony formation at 10 uM measured after 24 days by crystal violet staining based analysis; format: functional, cell-based; details: time 24.0 day
[15] = system: MDA-MB-468; assay: Antiproliferative activity against human MDA-MB-468 cells assessed as decrease in number of colony formation at 10 uM measured after 24 days by crystal violet staining based analysis; format: functional, cell-based; details: time 24.0 day
[16] = system: MDA-MB-468; assay: Induction of […] in human MDA-MB-468 cells assessed as increase in gamma-H2AX foci formation at 10 uM incubated for 24 hrs by confocal laser scanning microscopic analysis; format: functional, cell-based
[17] = Half life in Sprague-Dawley rat 10 mg/kg, po measured upto 24 hrs by LC-MS/MS analysis; format: ADME, organism-based; details: in vivo
[18] = system: MDA-MB-231; assay: Induction of cell cycle arrest in human MDA-MB-231 cells assessed as accumulation of cells at S phase at 10 uM measured after 24 hrs by PI staining based cytometry analysis (reference value: 23.01 %); format: functional
[19] = target: T1, Poly [ADP-ribose] polymerase 1 (Homo sapiens, UniProt P09874); assay: Inhibition of PARP1 (unknown origin) incubated for 1 hr by ELISA analysis
[20] = system: MDA-MB-231; assay: Induction of apoptosis in human MDA-MB-231 cells assessed as downregulation of Bcl-2 expression incubated for 24 hrs; format: functional, cell-based; details: dose 5-20 µM
[21] = target: T1, Poly [ADP-ribose] polymerase 1; assay: Binding affinity to PARP1 in human MDA-MB-436 cells assessed as increase in protein thermal stabilization at 10 uM incubated for 6 hrs by CETSA based Western blot analysis; format: cell-based
[22] = system: MDA-MB-231; assay: Upregulation of gamma-H2AX expression in human MDA-MB-231 cells incubated for 24 hrs by Western blot analysis; format: functional, cell-based; details: dose <= 20.0 µM
[23] = system: MDA-MB-436; assay: Induction of cell cycle arrest in human MDA-MB-436 cells assessed as accumulation of cells at G2 phase at 10 uM measured after 24 hrs by PI staining based cytometry analysis (reference value: 2.54%); format: functional
[24] = system: MDA-MB-468; assay: Induction of apoptosis in human MDA-MB-468 cells assessed as increase in […] at 10 uM incubated for 24 hrs by Annexin V/PI staining based flow cytometry analysis; format: functional, cell-based
[25] = system: MDA-MB-231; assay: Downregulation of Pol II CTD at ser2 residue expression in human MDA-MB-231 cells incubated for 24 hrs; format: functional, cell-based; details: dose 5-20 µM
[26] = target: T2, Cyclin-dependent kinase 12 (Homo sapiens, UniProt Q9NYV4); assay: Inhibition of CDK12 (unknown origin) at 1 uM in presence of ATP by kinase-glo plus luminescent assay relative to control
[27] = system: MDA-MB-468; assay: Induction of apoptosis in human MDA-MB-468 cells incubated for 24 hrs by Annexin V/PI staining based flow cytometry analysis; format: functional, cell-based; details: dose 5-20 µM
[28] = target: Vascular endothelial growth factor receptor 3 (Homo sapiens) (UniProt P35916); assay: Inhibition of FLT4 (unknown origin) at 1 uM relative to control
[29] = Clearance in Sprague-Dawley rat at 1 mg/kg, iv measured upto 24 hrs by LC-MS/MS analysis; format: ADME, organism-based; details: in vivo
[30] = system: MDA-MB-231; assay: Antiproliferative activity against human MDA-MB-231 cells transfected with wild type CDK12 and PARP1 G863A mutant incubated for 24 hrs by MTT assay; format: functional, cell-based
[31] = target: T2, Cyclin-dependent kinase 12; assay: Inhibition of CDK12 in human MDA-MB-436 cells assessed as effect on Pol II CTD at ser7 residue phosphorylation incubated for 24 hrs; format: cell-based; details: dose 5-20 µM
[32] = system: MDA-MB-436; assay: Induction of cell cycle arrest in human MDA-MB-436 cells assessed as accumulation of cells at G2 phase at 5 uM measured after 24 hrs by PI staining based cytometry analysis (reference value: 2.54%); format: functional
[33] = Toxicity in BALB/c mouse xenografted with human MDA-MB-231 cells assessed as morphological changes in heart at 20 to 80 mg/kg, ip administered once daily for 16 days by H and E staining based analysis; format: organism-based; details: in vivo, 384 h, dose 20-80 mg/kg, time 16 day
[34] = system: MDA-MB-436; assay: Induction of cell cycle arrest in human MDA-MB-436 cells assessed as accumulation of cells at G1 phase at 20 uM measured after 24 hrs by PI staining based cytometry analysis (reference value: 72.04%); format: functional
[35] = AUC (0 to t) in Sprague-Dawley rat at 1 mg/kg, iv measured upto 24 hrs by LC-MS/MS analysis; format: ADME, organism-based; details: in vivo
[36] = system: MDA-MB-436; assay: Antiproliferative activity against human MDA-MB-436 cells transfected with CDK12 M816A and PARP1 G863A mutant incubated for 24 hrs by MTT assay; format: functional, cell-based
[37] = Apparent volume of distribution in Sprague-Dawley rat at 1 mg/kg, iv measured upto 24 hrs by LC-MS/MS analysis; format: ADME, organism-based; details: in vivo, read-out: Vz

T2 sequence (Q9NYV4 whole entry, looked up): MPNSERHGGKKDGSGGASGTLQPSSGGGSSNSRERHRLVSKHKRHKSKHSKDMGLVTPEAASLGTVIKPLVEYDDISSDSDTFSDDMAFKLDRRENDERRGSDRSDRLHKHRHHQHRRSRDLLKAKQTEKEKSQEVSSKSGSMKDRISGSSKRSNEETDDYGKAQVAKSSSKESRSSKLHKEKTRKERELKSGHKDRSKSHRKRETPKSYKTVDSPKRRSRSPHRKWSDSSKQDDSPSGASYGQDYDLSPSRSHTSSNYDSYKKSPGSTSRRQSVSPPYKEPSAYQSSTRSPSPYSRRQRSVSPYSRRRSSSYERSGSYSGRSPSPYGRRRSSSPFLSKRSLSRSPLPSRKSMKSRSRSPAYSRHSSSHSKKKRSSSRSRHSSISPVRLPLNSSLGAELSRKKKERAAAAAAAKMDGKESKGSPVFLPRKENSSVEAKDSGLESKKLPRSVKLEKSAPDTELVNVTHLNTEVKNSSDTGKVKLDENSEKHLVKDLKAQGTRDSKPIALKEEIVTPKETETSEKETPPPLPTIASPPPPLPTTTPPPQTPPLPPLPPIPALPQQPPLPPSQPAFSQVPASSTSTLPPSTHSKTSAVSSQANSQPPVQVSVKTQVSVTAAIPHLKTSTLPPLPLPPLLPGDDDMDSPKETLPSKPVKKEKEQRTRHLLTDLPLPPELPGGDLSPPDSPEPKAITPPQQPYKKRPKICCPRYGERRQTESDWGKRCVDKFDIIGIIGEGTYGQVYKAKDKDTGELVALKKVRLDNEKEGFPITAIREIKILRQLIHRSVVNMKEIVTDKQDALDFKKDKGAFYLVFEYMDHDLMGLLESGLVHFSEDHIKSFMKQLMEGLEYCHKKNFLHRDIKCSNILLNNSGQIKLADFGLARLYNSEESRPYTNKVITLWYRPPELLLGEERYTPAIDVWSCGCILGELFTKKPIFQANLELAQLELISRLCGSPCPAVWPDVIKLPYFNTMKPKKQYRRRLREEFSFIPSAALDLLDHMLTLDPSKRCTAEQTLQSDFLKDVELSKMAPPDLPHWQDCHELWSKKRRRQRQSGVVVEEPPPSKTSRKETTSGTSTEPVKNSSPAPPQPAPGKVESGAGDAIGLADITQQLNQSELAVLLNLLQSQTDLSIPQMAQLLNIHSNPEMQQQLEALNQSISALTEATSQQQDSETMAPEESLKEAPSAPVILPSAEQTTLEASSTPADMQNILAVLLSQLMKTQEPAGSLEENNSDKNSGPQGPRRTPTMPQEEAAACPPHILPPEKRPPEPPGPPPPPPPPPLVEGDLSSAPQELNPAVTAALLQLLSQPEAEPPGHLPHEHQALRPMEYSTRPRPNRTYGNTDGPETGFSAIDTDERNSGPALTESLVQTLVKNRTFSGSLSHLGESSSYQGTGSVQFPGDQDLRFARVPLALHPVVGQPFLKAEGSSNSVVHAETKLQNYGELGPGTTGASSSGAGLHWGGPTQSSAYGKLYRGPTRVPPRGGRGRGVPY
T1 sequence (P09874 whole entry): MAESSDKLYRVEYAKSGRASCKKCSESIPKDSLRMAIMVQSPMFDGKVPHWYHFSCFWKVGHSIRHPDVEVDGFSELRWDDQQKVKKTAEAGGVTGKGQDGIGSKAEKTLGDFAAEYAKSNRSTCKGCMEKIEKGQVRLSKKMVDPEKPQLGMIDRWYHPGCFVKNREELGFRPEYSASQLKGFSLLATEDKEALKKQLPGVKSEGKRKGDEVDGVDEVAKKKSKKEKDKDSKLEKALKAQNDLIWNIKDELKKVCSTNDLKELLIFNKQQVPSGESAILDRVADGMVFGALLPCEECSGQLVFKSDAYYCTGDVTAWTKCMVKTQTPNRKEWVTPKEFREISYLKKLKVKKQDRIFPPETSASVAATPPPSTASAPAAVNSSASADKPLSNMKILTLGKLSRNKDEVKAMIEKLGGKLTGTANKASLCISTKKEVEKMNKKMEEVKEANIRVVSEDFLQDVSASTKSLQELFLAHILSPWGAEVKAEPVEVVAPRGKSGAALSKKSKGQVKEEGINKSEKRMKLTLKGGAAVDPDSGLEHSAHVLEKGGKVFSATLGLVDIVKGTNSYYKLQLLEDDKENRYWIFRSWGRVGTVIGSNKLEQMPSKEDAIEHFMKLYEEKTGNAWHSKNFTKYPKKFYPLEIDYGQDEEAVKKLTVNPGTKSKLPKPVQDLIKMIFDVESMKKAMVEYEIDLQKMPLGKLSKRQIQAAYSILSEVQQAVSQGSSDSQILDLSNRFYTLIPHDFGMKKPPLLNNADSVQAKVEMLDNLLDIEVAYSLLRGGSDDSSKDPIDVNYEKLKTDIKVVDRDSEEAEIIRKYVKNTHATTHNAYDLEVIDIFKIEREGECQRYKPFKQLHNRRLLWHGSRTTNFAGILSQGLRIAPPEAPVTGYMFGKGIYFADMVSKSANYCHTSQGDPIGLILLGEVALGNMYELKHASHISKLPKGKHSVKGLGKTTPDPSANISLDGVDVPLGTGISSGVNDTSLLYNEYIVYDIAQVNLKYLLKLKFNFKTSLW
Vascular endothelial growth factor receptor 3 (Homo sapiens), sequence (P35916 whole entry): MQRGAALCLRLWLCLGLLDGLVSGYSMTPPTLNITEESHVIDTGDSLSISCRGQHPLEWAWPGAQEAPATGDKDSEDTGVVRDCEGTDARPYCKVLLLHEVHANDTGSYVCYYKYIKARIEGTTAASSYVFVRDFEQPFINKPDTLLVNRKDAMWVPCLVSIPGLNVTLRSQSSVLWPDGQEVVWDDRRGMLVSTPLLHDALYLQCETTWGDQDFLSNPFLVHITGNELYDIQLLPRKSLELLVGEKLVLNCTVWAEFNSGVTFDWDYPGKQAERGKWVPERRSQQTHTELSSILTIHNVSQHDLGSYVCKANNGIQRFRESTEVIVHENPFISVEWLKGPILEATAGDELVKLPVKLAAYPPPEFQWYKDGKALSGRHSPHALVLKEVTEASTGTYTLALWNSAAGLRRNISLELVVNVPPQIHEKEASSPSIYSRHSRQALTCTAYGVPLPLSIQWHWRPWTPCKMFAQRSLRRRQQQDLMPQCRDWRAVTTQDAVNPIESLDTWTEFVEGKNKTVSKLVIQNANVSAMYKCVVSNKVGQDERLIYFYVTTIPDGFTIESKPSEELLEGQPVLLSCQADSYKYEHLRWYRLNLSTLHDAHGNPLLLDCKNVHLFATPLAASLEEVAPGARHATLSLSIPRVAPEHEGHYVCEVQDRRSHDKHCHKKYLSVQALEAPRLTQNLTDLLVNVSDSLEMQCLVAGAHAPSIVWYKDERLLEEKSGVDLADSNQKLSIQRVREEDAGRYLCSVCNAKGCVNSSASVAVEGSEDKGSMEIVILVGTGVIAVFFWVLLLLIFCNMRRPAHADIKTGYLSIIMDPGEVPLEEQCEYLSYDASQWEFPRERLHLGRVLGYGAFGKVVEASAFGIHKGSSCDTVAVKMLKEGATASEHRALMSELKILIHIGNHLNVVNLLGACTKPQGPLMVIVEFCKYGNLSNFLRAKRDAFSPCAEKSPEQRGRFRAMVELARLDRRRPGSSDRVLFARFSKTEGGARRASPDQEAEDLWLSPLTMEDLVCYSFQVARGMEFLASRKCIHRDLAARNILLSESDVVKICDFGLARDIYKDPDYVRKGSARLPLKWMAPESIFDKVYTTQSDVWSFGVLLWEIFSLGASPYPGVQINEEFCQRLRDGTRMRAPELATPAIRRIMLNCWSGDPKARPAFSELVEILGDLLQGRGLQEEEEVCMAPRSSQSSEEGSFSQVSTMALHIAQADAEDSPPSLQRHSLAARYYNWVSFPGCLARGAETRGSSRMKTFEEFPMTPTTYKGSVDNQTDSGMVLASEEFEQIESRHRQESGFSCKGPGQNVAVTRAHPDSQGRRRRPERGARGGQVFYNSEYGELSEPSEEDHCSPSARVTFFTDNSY
AP2-associated protein kinase 1 (Homo sapiens), sequence (Q2M2I8 whole entry, looked up): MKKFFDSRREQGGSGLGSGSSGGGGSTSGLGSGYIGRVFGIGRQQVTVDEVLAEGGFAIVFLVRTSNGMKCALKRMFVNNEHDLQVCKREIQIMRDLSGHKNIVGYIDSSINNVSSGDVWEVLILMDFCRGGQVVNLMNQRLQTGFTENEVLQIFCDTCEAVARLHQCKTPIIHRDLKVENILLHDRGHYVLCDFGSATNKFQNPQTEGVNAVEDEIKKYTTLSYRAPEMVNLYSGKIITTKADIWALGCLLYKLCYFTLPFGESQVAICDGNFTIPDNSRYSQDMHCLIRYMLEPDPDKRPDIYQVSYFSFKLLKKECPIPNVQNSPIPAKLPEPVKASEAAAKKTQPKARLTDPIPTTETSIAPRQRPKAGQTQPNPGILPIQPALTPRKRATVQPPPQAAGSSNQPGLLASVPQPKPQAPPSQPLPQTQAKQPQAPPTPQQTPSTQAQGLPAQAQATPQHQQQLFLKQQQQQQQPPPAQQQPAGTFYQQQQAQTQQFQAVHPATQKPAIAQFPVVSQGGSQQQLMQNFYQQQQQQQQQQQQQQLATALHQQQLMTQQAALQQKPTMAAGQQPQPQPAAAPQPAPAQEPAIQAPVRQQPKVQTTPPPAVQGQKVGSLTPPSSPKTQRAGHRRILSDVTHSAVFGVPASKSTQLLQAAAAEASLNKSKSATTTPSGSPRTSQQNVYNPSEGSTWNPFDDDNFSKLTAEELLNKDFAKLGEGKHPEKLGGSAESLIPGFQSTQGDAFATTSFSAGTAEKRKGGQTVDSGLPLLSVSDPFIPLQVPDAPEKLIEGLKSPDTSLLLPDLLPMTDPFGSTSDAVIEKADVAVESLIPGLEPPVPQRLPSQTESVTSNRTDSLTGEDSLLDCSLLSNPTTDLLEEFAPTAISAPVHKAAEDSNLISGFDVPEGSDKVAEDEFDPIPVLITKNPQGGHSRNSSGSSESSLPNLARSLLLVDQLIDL

**Q.** Which MRT inf [1] does the source give for `NC(=O)c1cccc2[nH]c(NC(=O)c3cccc(C(=O)N4CCC(Nc5ncc(I)cn5)CC4)c3)nc12` here?
**A.** 4.76 h

**Q.** And the Activity [2]?
**A.** Non-Toxic

**Q.** What about the half-life [3] of the same compound?
**A.** 3 h

**Q.** What about the Activity [4] of the same compound?
**A.** Dose-Dependent Effect

**Q.** What about the half-life [5] of the same compound?
**A.** 3.51 h

**Q.** What about the Activity [6] of the same compound?
**A.** Dose-Dependent Effect

**Q.** And the Activity [7]?
**A.** Dose-Dependent Effect

**Q.** What about the Cmax [8] of the same compound?
**A.** 0.0122 µg/mL

**Q.** What about the Activity [9] of the same compound?
**A.** 16.84%

**Q.** What about the inhibition [10] of the same compound?
**A.** Active

**Q.** What about the Activity [11] of the same compound?
**A.** 26.5%

**Q.** What about the IC50 [12] of the same compound?
**A.** 0.03 µM

**Q.** And the inhibition [13]?
**A.** > 60%

**Q.** What about the Activity [14] of the same compound?
**A.** Active

**Q.** What about the Activity [15] of the same compound?
**A.** Active

**Q.** What about the Activity [16] of the same compound?
**A.** Active

**Q.** What about the half-life [17] of the same compound?
**A.** 2.39 h

**Q.** What about the Activity [18] of the same compound?
**A.** 17.93%

**Q.** What about the IC50 [19] of the same compound?
**A.** 0.034 µM

**Q.** What about the Activity [20] of the same compound?
**A.** Dose-Dependent Effect

**Q.** What about the Activity [21] of the same compound?
**A.** Active

**Q.** What about the Activity [22] of the same compound?
**A.** Dose-Dependent Effect

**Q.** And the Activity [23]?
**A.** 7.35%

**Q.** And the Activity [24]?
**A.** Active

**Q.** What about the Activity [25] of the same compound?
**A.** Dose-Dependent Effect

**Q.** What about the inhibition [26] of the same compound?
**A.** 77.3%

**Q.** And the Activity [27]?
**A.** Dose-Dependent Effect

**Q.** And the inhibition [28]?
**A.** > 60%

**Q.** What about the clearance [29] of the same compound?
**A.** 0.75 L/h/kg

**Q.** What about the Activity [30] of the same compound?
**A.** Active

**Q.** What about the inhibition [31] of the same compound?
**A.** Dose-Dependent Effect

**Q.** And the Activity [32]?
**A.** 4.39%

**Q.** And the Activity [33]?
**A.** Non-Toxic

**Q.** And the Activity [34]?
**A.** 63.76%

**Q.** What about the AUC(0-t) at 24 h [35] of the same compound?
**A.** 1.25 µg·h/mL

**Q.** What about the Activity [36] of the same compound?
**A.** Active

**Q.** What about the Vd [37] of the same compound?
**A.** 3.22 L/kg
